For this assay, the system named is Mycobacterium tuberculosis non-replicating, growth inhibition. The experiment in a line: growth inhibition of non-replicating M. tuberculosis (AID 488890).

Structures are written as SMILES. Inconclusive results are not listed. Calls of active or inactive are those of the source. The rule behind the calls is not given here.

With `O=C1c2cccc3cc([N+](=O)[O-])cc(c23)C(=O)N1c1ccccc1O`, the IC50 was 15.1 µM (inactive).
Then `COC(=O)CN(C#N)c1nc(N(C)C)nc(N(C)C)n1`, with 16.5 µM (inactive); and `OC(CNCCc1ccc(C(F)(F)F)cc1)COc1cccc2ccccc12` (stereo unspecified), with 9.03 µM; and `COc1ccc(-c2nnc(NC(=O)c3ccc(S(=O)(=O)N4COCC4(C)C)cc3)o2)cc1`, with 11.2 µM (inactive).
To `OCC#CCSc1nnc(-c2ccc(Br)cc2)o1` belongs 0.33 µM.
With `CC(CCc1ccccc1)NC(=O)COC(=O)c1cccs1` (stereo unspecified), the IC50 was 13.4 µM (inactive).
Then `CSc1ccc(CNc2ncc(-c3cccc([N+](=O)[O-])c3)n2C)cc1`, with 21.1 µM (inactive); and `N#CC1=C(N)Oc2c(ccc3cccnc23)C1c1ccccc1` (stereo unspecified), with 33.9 µM (inactive); and `COc1ccccc1-c1cc(SC)c(C#N)c(=O)o1`, with 14.2 µM (inactive).
To `Cc1cc(Cl)ccc1OC(C)C(=O)Nc1ccc([N+](=O)[O-])cn1` (stereo unspecified) belongs 23.3 µM (inactive); to `Cc1ccc(-c2nnc(SCC#CCOC(=O)c3ccco3)o2)cc1`, 0.11 µM.
Then `O=[N+]([O-])c1ccc(CN2CCN(c3ccccc3)CC2)o1`, with 0.64 µM; and `CCc1ccc(OCC(=O)Nc2ccncc2)c(Br)c1`, with 6.25 µM.
As to `O=C(Nc1cccc(Cl)c1)Nc1nnc(-c2ccncc2)s1`, the IC50 is 2.69 µM.
Then `Oc1ccccc1/C=N/Nc1nc2ccccc2o1`, with 0.19 µM; and `COc1cccc(-c2nnc(NC(=O)c3ccc4ncsc4c3)o2)c1`, with 9.06 µM.
As to `CCCOC(=O)c1cc(-c2ccc(C=O)o2)ccc1Cl`, the IC50 was 4.94 µM.
Then `CCOC(=O)N/N=C\c1ccc([N+](=O)[O-])s1`, with 9.1 µM; and `Cc1ccc(C(=O)Nc2nnc(-c3ccncc3)o2)cc1`, with 23.3 µM (inactive); and `C/C(=N\NC(=O)c1cccc(Br)c1)c1ccccn1`, with 3.65 µM.
In the case of `O=C(N/N=C/C=C/c1ccccc1)c1ccccn1`, the IC50 is 7.93 µM.
To `N=c1n(Cc2ccc(Cl)cc2)c2ccccc2n1CC(O)COc1ccccc1` (stereo unspecified) belongs 13.5 µM (inactive); to `NCCOc1ccc(C23CC4CC(CC(C4)C2)C3)cc1`, 16 µM (inactive).
On to `O=C(OCC(=O)N1CCCCC1)c1cc2ccccc2cc1O`, for which the half-inhibitory concentration (IC50) is 5.84 µM.
Then `NC(=S)n1[nH]c(-c2ccc([N+](=O)[O-])cc2)c(N=Nc2ccc(O)cc2)c1=O`, with 18.5 µM (inactive); and `CCn1c(=O)c(C(=O)Nc2ncccc2C)c(O)c2ccccc21`, with 9.94 µM.
To `CCN1/C(=C(\O)c2ccccc2)C(=O)c2ccccc2S1(=O)=O` belongs 15.8 µM (inactive); to `O=C(NCc1ccc(Cl)cc1)c1n[nH]c([N+](=O)[O-])c1Cl`, 13.9 µM (inactive).
Then `Cc1ccc(SCCC(=O)OCC(=O)NCC2CCCCC2)cc1`, with 16.6 µM (inactive); and `O=C(Nc1ccccc1)c1cc2ccccc2o1`, with 4.57 µM.
As to `COc1ccc(C(CCNCc2ccccc2)c2ccc(F)cc2)cc1` (stereo unspecified), the IC50 is 8.67 µM.
Regarding `CC(/C=C/c1ccc2c(c1)OCO2)=N/NC(=O)C1COc2ccccc2O1` (stereo unspecified), the IC50 was 4.54 µM.
Then `C=CCn1c(O)c(C2=c3ccccc3=NC2=O)c2ccccc21`, with 2.68 µM.
To `Cc1ccccc1N1CCN(Cc2ccc([N+](=O)[O-])o2)CC1` belongs 3.25 µM; to `Cc1cc(C)n2nc(S(=O)(=O)Nc3c(Cl)cccc3Cl)nc2n1`, 3.15 µM.
Then `COc1ccc(-c2cc(O)cc(O)c2)cc1`, with 6.15 µM; and `CN(CC(=O)Nc1ccc(Cl)cc1)C1CCCCC1`, with below 0.1 µM.
With `O=C(COc1cccc2ccccc12)Nc1nc2ccccc2[nH]1`, the IC50 was 5.36 µM.
To `O=C1C=CC(O)(c2cc(=O)c3c(O)cc(O)cc3o2)C=C1` belongs 2.61 µM.
Regarding `COC(=O)COc1ccc(-c2nn(C)c(=O)c3ccccc23)cc1`, the IC50 is 4.25 µM.
In the case of `O=C1/C(=C\c2ccco2)SC(=S)N1c1ccc(O)cc1`, the IC50 was 33.3 µM (inactive).
To `Cc1ccc(S(=O)(=O)/N=C(\CCl)N2CCOCC2)cc1` belongs 11.9 µM (inactive).
To `O=C(NNc1ccc([N+](=O)[O-])cc1)C1CC2CCCC(C1)C2=O` (stereo unspecified) belongs 16.2 µM (inactive).
To `O=C(COc1ccccc1)Nc1ccc(F)cc1` belongs 8.5 µM; to `O=C(COc1ccc(Cl)cc1)NNC(=O)c1ccccn1`, 12.1 µM (inactive).
For the compound `CCNC(=O)NC(=O)C(C)OC(=O)CCCSc1nc2ccccc2s1` (stereo unspecified), the half-maximal inhibitory concentration (IC50) was 4.68 µM.
With `CCCNC(=O)N1CCC(c2ccc3c(c2)OCO3)CC1`, the IC50 was 4.71 µM.
To `Cc1ccc(-c2nn(-c3ccccc3)cc2/C=N/NC(=O)c2ccncc2)o1` belongs 6.11 µM; to `Oc1ccccc1Nc1nc(NCC2CCCO2)c2ccccc2n1` (stereo unspecified), 30.7 µM (inactive).
To `CN1CCC(O)(c2ccc(Cl)cc2)C(C(=O)c2ccc(Cl)cc2)C1` (stereo unspecified) belongs 1.97 µM; to `CCOC(=O)CNCCC(=O)c1ccc(Br)cc1`, 4.35 µM; to `O=C(N/N=C/c1cccc(F)c1)c1c(O)c2ccccc2[nH]c1=O`, 3.17 µM.
Then `Cc1ccc(C)c(NC(=O)c2cc([N+](=O)[O-])cc([N+](=O)[O-])c2)c1`, with 28.3 µM (inactive).
In the case of `Cc1cc(CC(C)C)n(-c2nc3ccccc3c(=O)n2OCC(N)=O)n1`, the IC50 was 16.1 µM (inactive).
For the compound `Cc1ccc2nc(C)c3c(c2c1)SCC3`, the IC50 is 11.6 µM (inactive).
For `Cc1ccc2nc(/N=C(\N)NC(=O)NC3CCCCC3)nc(C)c2c1`, the half-inhibitory concentration (IC50) was 8.34 µM.
To `COc1ccc(OC(=O)c2cc3cc(Cl)ccc3oc2=O)cc1` belongs 10.1 µM (inactive).
To `CCC(=O)Nc1nc2ccccc2n1Cc1ccc(C)cc1` belongs 20.5 µM (inactive); to `CC(=O)c1ccc(-n2cc(-c3ccc(C(C)(C)C)cc3)[n+]3c2SCCC3)cc1`, 6.18 µM; to `COC(=O)c1cc2c(ccc3ccccc32)oc1=O`, 6.24 µM.
As for `O=C(c1ccc(Cl)cc1)c1nnc(-c2ccncc2)o1`, the half-inhibitory concentration (IC50) is 3.32 µM.
Then `C=CCc1ccc(OCC(O)CN2CCN(Cc3ccc(Cl)cc3)CC2)c(OC)c1` (stereo unspecified), with 15.7 µM (inactive); and `COc1ccc(S(=O)(=O)N(C(C)=O)c2ccc(OC(C)=O)c3ccccc23)cc1[N+](=O)[O-]`, with 13.6 µM (inactive); and `COc1cc(C=O)ccc1OCCOCCOc1ccc(Cl)cc1`, with 27.8 µM (inactive).
`Cc1[nH]c2ccccc2c1C(=O)COC(=O)c1ccc([N+](=O)[O-])s1`: the IC50 is 0.65 µM.
To `CCOC(=O)CCSc1n[nH]c(=S)s1` belongs 11.7 µM (inactive); to `Cc1ccc(-n2c(C)cc(C3=NNC(=NC4CC4)SC3)c2C)cc1C`, 7.03 µM; to `COC(=O)CCn1c(C)cc(C(=O)COc2ccccc2C(N)=O)c1C`, 9.88 µM.
Then `O=C(N/N=C/c1ccc(Br)s1)c1ccncc1`, with 0.47 µM; and `O=S1(=O)C=C(Sc2nc3cc(Cl)ccc3o2)c2ccccc21`, with 0.3 µM.
`CCOc1ccc(OCCSc2ccc(S(=O)(=O)N3CCN(C)CC3)cn2)cc1`: the IC50 is 15.5 µM (inactive).
Then `O=C(NCCCN1CCCC1)c1cc2c(Cl)nc3ccccc3c2s1`, with 10.5 µM (inactive); and `CC(NC(=O)COc1ccc(-c2ccccc2)cc1)C1CCCO1` (stereo unspecified), with 8.2 µM.
Then `CCC(C)n1c(=S)[nH]c2ccccc2c1=O` (stereo unspecified), with 14.8 µM (inactive); and `O=C(CC1CCCC1)OCn1nnc2ccccc2c1=O`, with 14 µM (inactive).
Then `Oc1ccc(Cl)cc1CNCc1ccc(F)cc1`, with 11.1 µM (inactive).
For `CCSc1nsc(NC(=O)Nc2ccc(F)cc2F)n1`, the IC50 was 18.9 µM (inactive).
Then `COc1ccc(NC(=O)COc2ccc3c(c2)CCC3)cc1`, with 4.54 µM.
To `CC(C)COc1ccc(C(=O)CCN2CCCCC2)cc1` belongs 9.7 µM.
In the case of `CCOc1ccc(-c2ccc(C=O)o2)c([N+](=O)[O-])c1`, the IC50 is 19 µM (inactive).
To `O=C(CC1CC2CCC1C2)NCc1cccs1` (stereo unspecified) belongs 1.69 µM; to `CCCc1nnc(NC(=O)c2cc3ccccc3oc2=O)s1`, 2.34 µM.
Then `O=C(c1ccc([N+](=O)[O-])s1)N1CCN(c2cccc(Cl)c2)CC1`, with 0.38 µM; and `Cc1nnc(SCCC(=O)Nc2ccc(Cl)cc2)o1`, with 39.2 µM (inactive).
Then `Cc1ccc(C)c(-c2nnc(NC(=O)c3ccc([N+](=O)[O-])o3)o2)c1`, with 0.46 µM; and `CC1(C)OC(c2ccccc2)=C/C(=C\C=N\NC(=O)c2ccncc2)O1`, with 1.75 µM.
Take `C(=C\c1ccccc1)/CSc1nc2ncccc2[nH]1`: the IC50 was 4.36 µM.
To `CCOC(=O)c1ccc(COC(=O)c2cc3ccccc3oc2=O)o1` belongs 12.1 µM (inactive); to `C/C(=N/NC(=O)c1ccco1)c1ccc(Br)s1`, 23 µM (inactive); to `CCOC(=O)COc1cc(N)c(Cl)cc1Cl`, 5.21 µM.
As to `CCOC(=O)c1nc2sc3c(c2c(=O)[nH]1)CCC(C)C3` (stereo unspecified), the IC50 was below 0.1 µM.
To `O=C(N/N=C/c1cc(Br)c(Br)s1)c1ccncc1` belongs 3.18 µM; to `Cc1ccc(C(C)NC(=O)c2cc3ccccc3oc2=O)cc1C` (stereo unspecified), 3.07 µM; to `COc1ccccc1OCC(=O)N/N=C/C=C/c1ccc([N+](=O)[O-])o1`, 2.78 µM.
To `O=C(CCS(=O)(=O)c1ccccc1)Nc1nc(-c2ccccn2)cs1` belongs 11.1 µM (inactive).
Take `NC1=NC[C@H](Cc2ccccc2)N1CCCCC1CCCCC1`: the IC50 was 7.48 µM.
To `O=C(COC(=O)CC1CCCC1)Nc1ccc(Cl)cn1` belongs 17.2 µM (inactive); to `COc1ccc(/C=C2\Sc3ccc(C(=O)NCCN4CCCCCC4)cc3N(C)C2=O)cc1`, 12.7 µM (inactive); to `O=C(NC1CCOc2ccccc21)c1ccc(Cl)nc1` (stereo unspecified), 1.46 µM.
Then `CCCCOC(=O)c1ccc(NC(=O)c2nn(C)cc2Br)cc1`, with 20.4 µM (inactive); and `COc1cc(/C=N/Nc2ccc(Cl)c(C(=O)O)c2)ccc1OC(=O)c1ccco1`, with 11.9 µM (inactive).

The IC50 is the point on the concentration scale where inhibition reaches its midpoint.

These data come from PubChem BioAssay AID488890 (Southern Research Specialized Biocontainment Screening …, 2010).
